# From patent publication US20230054039A1, “METHOD OF TREATING HER2-POSITIVE BREAST CANCER” (University of Cincinnati, priority 2021, published 2023)
# Peptide text beside a SMILES is read from it. * marks the point of attachment. Cbz = O=C(OCc1ccccc1)*
# What was measured:
# [1] = system: FIP200 and ATG13 KO HeLa cells; assay: Immunoblot of HER2 in FIP200 KO and ATG13 KO HeLa cells treated with Dynasore (FIG. 13C); format: cell-based; conditions: 20 μM Dynasore for 24 hours
# Experimental: FIG. 13C. Immuno-blots showing levels of HER2 and GAPDH in WT, FIP200 KO and ATG13 KO HeLa cells with or without treatment of 20 μM Dynasore for 24 hours, as indicated.
# (§1) Western blot: Cells were cultured in 3.5 cm diameter plates (80-90% confluence), washed by PBS buffer, and lysed for 15 min on ice using a RIPA buffer (#C2978, Sigma) containing an anti-protease mix (#PI78415, Thermo Scientific). Protein concentration was measured by BCA assay (#23225, Thermo Scientific). Equal amounts of proteins were subjected to SDS-PAGE and immunoblotting as described previously (Wei et al., 2011).
# To test the above possibility directly, endocytosis of HER2 in HeLa cells with or without autophagy blockade was examined. […] In addition to endocytosis from the plasma membrane, proteins from the Golgi could be transported through endosomes to the lysosome or other compartments. […] Co-expression of mTurquoise2-beta-1,4-galactosyltransferase 1 (which constitutively expresses in the Golgi) in these cells further supported accumulation of HER2 in the Golgi of FIP200 and ATG13 KO HeLa cells (FIG. 4E).
# [2] = system: FIP200 and ATG13 KO HeLa cells; assay: Immunoblot of HER2 in FIP200 KO and ATG13 KO HeLa cells treated with MG132 (FIG. 3D); format: cell-based; conditions: MG132 10 μM for 6 hours
# Experimental: FIG. 3D. Immunoblots showing levels of HER2, ubiquitin and GAPDH in WT, FIP200 KO and Atg13 KO HeLa cells treated with DMSO and MG132 (10 μM) for 6 hours.
# CRISPR/Cas9-mediated knockout of FIP200 or ATG13 in HeLa and MCF-7 cells and knockdown of Atg5 in HER2 tumor cells: The pX458 plasmid, pSpCas9(BB)-2A-GFP (PX458) was a gift from Feng Zhang, Addgene plasmid # 48138 was used as the cloning backbone for expressing sgFIP200 and sgATG13. The sgRNA sequences of FIP200 and ATG13 are as follows:
# as §1, with “Equal amounts of proteins were subjected to SDS-PAGE and immunoblotting as described previously (Wei et al., 2011).” left out
# (§2) To further investigate regulation of HER2 by autophagy, mRNA levels of HER2 in mammary tumor and HeLa cells with or without autophagy inhibition were examined. […] Next, HER2 protein stability was analyzed and a decreased half-life of HER2 protein in Fip200−/− tumor cells (˜3 hrs) relative to Fip200+/+tumor cells (˜5 hrs) (FIGS. 3A and 3B) was observed. MG132 was used to inhibit proteasome-mediated protein degradation and its effect on HER2 protein levels in autophagy deficient HER2 tumor and HeLa cells was determined.
# Fip200−/− tumor cells = assay: Immunoblot of HER2 in Fip200-/- tumor cells treated with MG132 (FIG. 3C); format: cell-based, mouse; conditions: MG132 10 μM for 6 hours
# Experimental: FIG. 3C. Immunoblots showing levels of HER2, ubiquitin and GAPDH in Fip200+/+ and Fip200−/− cells treated with DMSO and MG132 (10 μM) for 6 hours.
# Cell lines and culture: Primary HER2 tumor cells from FIP200f/f; MMTV-Neu mice (N148 and N418 cells) were isolated and cultured in DMEM/F12 supplemented with 10% FBS, 10 ng/mL EGF, […], and 50 units/mL penicillin-streptomycin. HER2 tumor cells were then infected with recombinant retroviruses encoding CreERT2 and deletion of Fip200 was induced by culturing with 100 nmol/L 4-hydroxytamoxifen (4-OHT). HeLa and MCF-7 cells were obtained from ATCC and maintained in DMEM supplemented with 10% FBS. FIP200 KO and control WT MEF cells have been described previously.
# as §1, with “Equal amounts of proteins were subjected to SDS-PAGE and immunoblotting as described previously (Wei et al., 2011).” left out
# as §2, with “MG132 was used to inhibit proteasome-mediated protein degradation and its effect on HER2 protein levels in autophagy deficient HER2 tumor and HeLa cells was determined.” left out
# HeLa cells = assay: Immunoblot of HER2 levels in HeLa cells treated with autophagy inhibitors (FIG. 2I); format: cell-based; conditions: 48 hrs, chloroquine 50 μM, bafilomycin 200 nM, 3-MA 5 mM, spautin-1 10 μM
# Experimental: FIG. 2I. Immuno-blots showing levels of HER2 and GAPDH in HeLa cells treated by HBSS starvation, chloroquine (50 μM), bafilomycin (200 nM), 3-methyladenine (3-MA) (5 mM) and spautin-1 (10 μM) for 48 hrs.
# as §1
# To further evaluate the role of autophagy in the regulation of HER2 levels, shRNA was used to knockdown expression of another essential autophagy gene, Atg5, in the two lines of HER2 tumor cells (FIGS. 2F and 2G). […] Further, decreased HER2 levels upon FIP200 deletion was due to autophagy blockade, rather than the loss of other activities of FIP200, in HER2-driven mammary tumor cells, which was consistent with the similar phenotypes of cKO and cKI mice.
smiles,measurement,setting,value
O=C(N/N=C/c1ccc(O)c(O)c1)c1cc2ccccc2cc1O [Dynasore],rescue of decreased level of HER2,[1],did not rescue the decreased level of HER2
CC(C)C[C@@H](C=O)NC(=O)[C@H](CC(C)C)NC(=O)[C@H](CC(C)C)NC(=O)OCc1ccccc1 [MG132] (Cbz-Leu-Leu-Leu-aldehyde),reversal of reduced levels of HER2 protein,[2],did not significantly reverse the reduced levels of HER2 protein
same,reversal of reduced levels of HER2 protein,Fip200−/− tumor cells,did not significantly reverse the reduced levels of HER2 protein
"CO/C1=C\C(C)=C\[C@@H](C)[C@@H](O)[C@@H](C)C/C(C)=C/C=C/[C@H](OC)[C@@H]([C@@H](C)[C@@H](O)[C@H](C)[C@@]2(O)C[C@@H](O)[C@H](C)[C@@H](C(C)C)O2)OC1=O [bafilomycin Al, Bafilomycin A1]",levels of HER2,HeLa cells,reduced HER2 levels
CCN(CC)CCCC(C)Nc1ccnc2cc(Cl)ccc12 (centres unmarked) [chloroquine],levels of HER2,HeLa cells,reduced HER2 levels
